Laboratory results published in patent US9732080B2 (Vertex Pharmaceuticals Incorporated, priority 2006, dated 2017).

Biological target: T1, ΔF508-CFTR (Homo sapiens, UniProt P13569, DEL508-508)
T1 construct: expressed in transfected cells
Assay: Membrane potential optical assay, identification of correction compounds (ΔF508-CFTR correction)
Format: cell-based
Details: PercentActivity; NIH3T3 mouse fibroblasts stably expressing ΔF508-CFTR; 16-24 hrs with compound; read-out: Binned Max Efficacy
Description: Membrane potential optical methods for assaying ΔF508-CFTR modulation properties of compounds.
The assay utilizes fluorescent voltage sensing dyes to measure changes in membrane potential using a fluorescent plate reader (e.g., FLIPR III, Molecular Devices, Inc.) as a readout for increase in functional ΔF508-CFTR in NIH 3T3 cells. The driving force for the response is the creation of a chloride ion gradient in conjunction with channel activation by a single liquid addition step after the cells have previously been treated with compounds and subsequently loaded with a voltage sensing dye.
To identify small molecules that correct the trafficking defect associated with ΔF508-CFTR; a single-addition HTS assay format was developed. Assay Plates containing cells are incubated for ˜2-4 hours in tissue culture incubator at 37° C., 5% CO2, 90% humidity. Cells are then ready for compound exposure after adhering to the bottom of the assay plates.
The cells were incubated in serum-free medium for 16-24 firs in tissue culture incubator at 37° C., 5% CO2, 90% humidity in the presence or absence (negative control) of test compound. The cells were subsequently rinsed 3× with Krebs Ringers solution and loaded with a voltage sensing redistribution dye. To activate ΔF508-CFTR, 10 μM forskolin and the CFTR potentiator, genistein (20 μM), were added along with Cl^−-free medium to each well. The addition of Cl^−-free medium promoted Cl^− efflux in response to ΔF508-CFTR activation and the resulting membrane depolarization was optically monitored using voltage sensor dyes.
Bath Solution #1: (in mM) NaCl 160, KCl 4.5, CaCl2 2, MgCl2 1, HEPES 10, pH 7.4 with NaOH.
Chloride-free bath solution: Chloride salts in Bath Solution #1 are substituted with gluconate salts.
NIH3T3 mouse fibroblasts stably expressing ΔF508-CFTR are used for optical measurements of membrane potential. The cells are maintained at 37° C. in 5% CO2 and 90% humidity in Dulbecco's modified Eagle's medium supplemented with 2 mM glutamine, 10% fetal bovine serum, 1×NEAA, β-ME, 1× pen/strep, and 25 mM HEPES in 175 cm^2 culture flasks. For all optical assays, the cells were seeded at ˜20,000/well in 384-well matrigel-coated plates and cultured for 2 hrs at 37° C. before culturing at 27° C. for 24 hrs. for the potentiator assay. For the correction assays, the cells are cultured at 27° C. or 37° C. with and without compounds for 16-24 hours.

T1 sequence (P13569 with tags, fused parts or gaps DEL508-508): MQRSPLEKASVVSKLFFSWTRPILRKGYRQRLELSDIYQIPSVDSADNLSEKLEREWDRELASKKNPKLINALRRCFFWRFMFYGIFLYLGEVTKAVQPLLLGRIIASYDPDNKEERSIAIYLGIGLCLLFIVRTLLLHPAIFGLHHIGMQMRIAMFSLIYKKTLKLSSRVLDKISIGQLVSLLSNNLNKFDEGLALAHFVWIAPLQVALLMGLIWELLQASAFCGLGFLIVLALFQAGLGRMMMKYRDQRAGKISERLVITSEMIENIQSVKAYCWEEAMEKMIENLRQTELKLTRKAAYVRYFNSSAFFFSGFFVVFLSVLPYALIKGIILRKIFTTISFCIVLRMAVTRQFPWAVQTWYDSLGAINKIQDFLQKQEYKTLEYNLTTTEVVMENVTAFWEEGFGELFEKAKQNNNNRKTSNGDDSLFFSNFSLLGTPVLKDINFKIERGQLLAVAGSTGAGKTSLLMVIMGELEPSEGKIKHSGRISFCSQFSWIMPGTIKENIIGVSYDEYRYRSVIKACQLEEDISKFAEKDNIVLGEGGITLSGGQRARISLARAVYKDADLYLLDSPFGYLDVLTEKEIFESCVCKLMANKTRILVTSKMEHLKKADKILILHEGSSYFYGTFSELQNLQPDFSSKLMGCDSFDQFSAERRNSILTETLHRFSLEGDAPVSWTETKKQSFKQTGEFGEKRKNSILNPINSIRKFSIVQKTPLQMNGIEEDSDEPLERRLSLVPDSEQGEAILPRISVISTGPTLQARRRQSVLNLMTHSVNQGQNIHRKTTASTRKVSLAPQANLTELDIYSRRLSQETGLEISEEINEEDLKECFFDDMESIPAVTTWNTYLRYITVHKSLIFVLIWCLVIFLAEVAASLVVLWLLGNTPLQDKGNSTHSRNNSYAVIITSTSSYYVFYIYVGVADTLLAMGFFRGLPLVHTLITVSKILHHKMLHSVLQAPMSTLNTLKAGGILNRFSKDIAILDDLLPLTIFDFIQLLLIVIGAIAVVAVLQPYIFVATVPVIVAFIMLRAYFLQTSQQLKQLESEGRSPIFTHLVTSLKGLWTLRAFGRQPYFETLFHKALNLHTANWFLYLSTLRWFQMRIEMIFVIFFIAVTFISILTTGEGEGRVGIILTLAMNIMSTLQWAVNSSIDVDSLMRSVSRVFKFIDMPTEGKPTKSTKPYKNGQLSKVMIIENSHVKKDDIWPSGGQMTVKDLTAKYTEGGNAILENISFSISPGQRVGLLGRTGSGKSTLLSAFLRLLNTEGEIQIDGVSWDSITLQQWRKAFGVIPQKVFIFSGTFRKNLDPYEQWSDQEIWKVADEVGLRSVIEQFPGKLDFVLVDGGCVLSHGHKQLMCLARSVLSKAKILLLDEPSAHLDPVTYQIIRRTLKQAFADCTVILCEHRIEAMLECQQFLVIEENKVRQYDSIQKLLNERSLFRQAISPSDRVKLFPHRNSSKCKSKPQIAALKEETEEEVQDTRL

| SMILES | Emax [%] |
| --- | --- |
| O=C(Nc1ccc2cc[nH]c2n1)C1(c2ccc3c(c2)OCO3)CC1 [Compound 1, 1-(benzo[d][1,3]dioxol-5-yl)-N-(1H-pyrrolo[2,3-b]pyridin-6-yl)cyclopropanecarboxamide] | > 100 |
| COc1ccc(C2(C(=O)Nc3ccc4[nH]c(C(C)(C)C)cc4n3)CC2)cc1 [Compound 2, N-(2-tert-butyl-1H-pyrrolo[3,2-b]pyridin-5-yl)-1-(4-methoxyphenyl)cyclopropanecarboxamide] | 25 to 100 |
| COc1ccc(C2(C(=O)Nc3cnc4[nH]c(C(C)(C)C)cc4c3)CC2)cc1 [Compound 3, N-(2-tert-butyl-1H-pyrrolo[2,3-b]pyridin-5-yl)-1-(4-methoxyphenyl)cyclopropanecarboxamide] | 25 to 100 |
| COc1cccc(C2(C(=O)Nc3ccc4[nH]c(C(C)(C)C)cc4n3)CC2)c1 [Compound 4, N-(2-tert-butyl-1H-pyrrolo[3,2-b]pyridin-5-yl)-1-(3-methoxyphenyl)cyclopropanecarboxamide] | 25 to 100 |
| COc1cccc(C2(C(=O)Nc3cnc4[nH]c(C(C)(C)C)cc4c3)CC2)c1 [Compound 5] | 25 to 100 |
| CC(C)(C)c1cc2cc(NC(=O)C3(c4ccc5c(c4)OCO5)CC3)cnc2[nH]1 [Compound 6] | > 100 |
| CC(C)(C)c1cc2nc(NC(=O)C3(c4ccc5c(c4)OCO5)CC3)ccc2[nH]1 [Compound 7] | 25 to 100 |
| CC(C)(C)c1cc2cc(NC(=O)C3(c4ccc5c(c4)OCO5)CC3)ncc2[nH]1 [Compound 8] | 25 to 100 |
| CCc1cc2cc(NC(=O)C3(c4ccc5c(c4)OC(F)(F)O5)CC3)ncc2[nH]1 [Compound 9, 1-(2,2-difluorobenzo[d][1,3]dioxol-5-yl)-N-(2-ethyl-1H-pyrrolo[2,3-c]pyridin-5-yl)cyclopropanecarboxamide] | > 100 |
| CC1(c2cc3cc(NC(=O)C4(c5ccc6c(c5)OC(F)(F)O6)CC4)ncc3[nH]2)CC1 [Compound 10, 1-(2,2-difluorobenzo[d][1,3]dioxol-5-yl)-N-(2-(1-methylcyclopropyl)-1H-pyrrolo[2,3-c]pyridin-5-yl)cyclopropanecarboxamide] | > 100 |
| O=C(Nc1cc2cc(C3CCC3)[nH]c2cn1)C1(c2ccc3c(c2)OC(F)(F)O3)CC1 [Compound 11, N-(2-cyclobutyl-1H-pyrrolo[2,3-c]pyridin-5-yl)-1-(2,2-difluorobenzo[d][1,3]dioxol-5-yl)cyclopropanecarboxamide] | > 100 |
| CC(C)(C)c1cc2nc(NC(=O)C3(c4ccc5c(c4)OC(F)(F)O5)CC3)ccc2[nH]1 [Compound 12, N-(2-tert-butyl-1H-pyrrolo[3,2-b]pyridin-5-yl)-1-(2,2-difluorobenzo[d][1,3]dioxol-5-yl)cyclopropanecarboxamide] | > 100 |
| CC(C)(C)c1cc2cc(NC(=O)C3(c4ccc5c(c4)OC(F)(F)O5)CC3)cnc2[nH]1 [Compound 13, N-(2-tert-butyl-1H-pyrrolo[2,3-b]pyridin-5-yl)-1-(2,2-difluorobenzo[d][1,3]dioxol-5-yl)cyclopropanecarboxamide] | > 100 |
| CC(C)(C)c1cc2cc(NC(=O)C3(c4ccc5c(c4)OC(F)(F)O5)CC3)ncc2[nH]1 [Compound 14, N-(2-tert-butyl-1H-pyrrolo[2,3-c]pyridin-5-yl)-1-(2,2-difluorobenzo[d][1,3]dioxol-5-yl)cyclopropanecarboxamide] | > 100 |
| CC(C)(C)c1cc2cc(NC(=O)C3(c4ccc5c(c4)OC(F)(F)O5)CC3)ncc2n1CCO [Compound 15, N-(2-tert-butyl-1-(2-hydroxyethyl)-1H-pyrrolo[2,3-c]pyridin-5-yl)-1-(2,2-difiuorobenzo[d][1,3]dioxol-5-yl)cyclopropanecarboxamide] | > 100 |
